Data from publication PMC8370248, “Key Metabolic Enzymes Involved in Remdesivir Activation in Human Lung Cells” (Antimicrobial Agents and Chemotherapy, 2021).
Entries after “also recorded” stand apart in the source; their conditions may differ. Structures can show the parent of a compound that is named as a salt. Each block holds one molecule with its values, some of them ahead of it.

Columns and labels:
[1] = Chemical hydrolysis of MetX under acidic conditions mimicking lysosomal lumen; assay type: physicochemical
Procedure: P-N bond cleavage of RDV MetX was evaluated under acidic pH, mimicking intracellular lysosomal conditions.
To test the chemical stability of RDV MetX under acidic conditions (found within the lysosomal lumen) or neutral conditions (e.g., found in the cytosol of cells), 1 μM compound was incubated in a 250-μl reaction mixture consisting of 100 mM sodium acetate (pH 4.5) or 100 mM HEPES (pH 7.5). […] For reactions carried out at pH 4.5, the pH of the reaction aliquots was raised to pH 9 to 10 by addition of 7.5 μl of 0.2 M NaOH prior to addition of the quenching solution. Following protein precipitation and centrifugation, 150 μl of supernatants were dried down and reconstituted with 250 μl water. All samples were analyzed by LC-MS, and PAR values were used for quantification. Disappearance of MetX was monitored over the incubation time period. Three experiments were conducted with two replicates for each experiment, and data are reported as averages from three experiments.

HINT1 = target: T1, HINT1 (Homo sapiens, UniProt P49773); assay: HINT1-catalyzed hydrolysis of RDV MetX and positive control; assay type: in vitro ADME
T1 construct: purchased Abcam (Cambridge, MA)
T1 sequence (P49773 whole entry): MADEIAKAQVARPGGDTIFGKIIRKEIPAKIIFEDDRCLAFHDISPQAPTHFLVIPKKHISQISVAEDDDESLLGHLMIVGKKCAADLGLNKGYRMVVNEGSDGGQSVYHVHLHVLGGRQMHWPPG

CatA = target: T2, CatA (Homo sapiens, UniProt P10619); assay: CatA-catalyzed hydrolysis of RDV and control (substrate disappearance, LC-MS)
T2 sequence (P10619 29-326 limits assumed): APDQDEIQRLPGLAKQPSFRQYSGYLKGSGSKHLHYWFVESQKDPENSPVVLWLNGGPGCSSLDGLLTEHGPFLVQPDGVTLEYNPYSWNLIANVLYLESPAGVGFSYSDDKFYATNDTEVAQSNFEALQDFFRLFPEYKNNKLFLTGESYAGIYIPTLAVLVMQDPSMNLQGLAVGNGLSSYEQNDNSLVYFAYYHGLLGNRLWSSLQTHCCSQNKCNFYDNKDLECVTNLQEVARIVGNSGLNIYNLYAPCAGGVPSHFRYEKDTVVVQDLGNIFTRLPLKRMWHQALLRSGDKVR
T2 sequence (P10619 327-480 limits assumed): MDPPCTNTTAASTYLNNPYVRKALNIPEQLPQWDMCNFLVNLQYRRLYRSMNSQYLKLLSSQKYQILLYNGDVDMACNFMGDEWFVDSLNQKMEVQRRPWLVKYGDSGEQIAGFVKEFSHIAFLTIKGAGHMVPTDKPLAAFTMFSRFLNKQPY
Procedure: (§1) The catalytic activity of carboxylesterase 1b (CES1b), carboxylesterase 1c (CES1c), CES2, and CatA toward RDV hydrolysis was measured using protein-enriched subcellular fraction (CES isozymes) or recombinant proteins (CatA). The reaction rates were determined by monitoring the disappearance of RDV using a liquid chromatography-mass spectrometry (LC-MS) method.
Following protein precipitation and centrifugation, 150 μl of supernatant was dried down and reconstituted with 250 μl water. […] Three experiments were conducted with two replicates in each experiment, and data are reported as averages from the three experiments.
(§2) In all studies apart from those with CES1 and CatA with enzyme inhibitors, samples (10-μl aliquots) were injected with a Thermo Scientific autosampler. The LC instrumentation consisted of a Thermo Scientific Dionex UltiMate 3000 RS pump, and the LC column was a Waters Acquity UPLC BEH C18 (1.7 μm particle size, 2.1 by 50 mm). Mobile phases A and B were water 99.9% (vol/vol) containing 0.1% (vol/vol) formic acid, and acetonitrile 99.9% (vol/vol) containing 0.1% (vol/vol) formic acid, respectively, pumped at 0.2 ml/minute. Elution was achieved by a series of linear gradients over 2.33 min followed by reequilibration for 2.57 min. The MS instrument was a Thermo Q Exactive Hybrid Quadrupole-Orbitrap operating in positive or negative ionization mode as appropriate. This was calibrated on a weekly basis, and data were processed with GMSU 8.4.66 software by Gubbs Inc. (Alpharetta, GA). Mass tolerance of 5 ppm was used.

CES2 = target: T3, CES2 (Homo sapiens, UniProt O00748); assay: CES2-catalyzed hydrolysis of RDV and control (substrate disappearance, LC-MS); assay type: in vitro ADME; conditions: CES 1.5 mg/ml, pH 7.4, 37°C
T3 construct: purchased Corning Incorporated (Corning, NY); host or cells: baculovirus-infected insect cells (microsomal fraction, Supersomes)
T3 sequence (O00748 27-559): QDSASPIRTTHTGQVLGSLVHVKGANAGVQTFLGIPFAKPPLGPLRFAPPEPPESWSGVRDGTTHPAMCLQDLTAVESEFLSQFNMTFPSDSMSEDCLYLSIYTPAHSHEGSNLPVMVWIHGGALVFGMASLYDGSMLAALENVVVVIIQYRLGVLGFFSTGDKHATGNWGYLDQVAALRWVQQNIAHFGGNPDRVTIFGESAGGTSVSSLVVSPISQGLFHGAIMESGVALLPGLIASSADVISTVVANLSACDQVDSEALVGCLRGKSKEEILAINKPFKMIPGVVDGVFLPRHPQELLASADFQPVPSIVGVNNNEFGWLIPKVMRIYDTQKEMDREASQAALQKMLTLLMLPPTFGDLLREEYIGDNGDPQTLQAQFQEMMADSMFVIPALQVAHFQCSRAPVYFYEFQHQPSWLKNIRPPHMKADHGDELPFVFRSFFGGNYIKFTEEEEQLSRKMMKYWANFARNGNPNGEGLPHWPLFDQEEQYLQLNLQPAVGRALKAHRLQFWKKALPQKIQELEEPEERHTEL
Procedure: as §1
(§3) RDV or positive-control substrates (oseltamivir for CES1 or procaine for CES2) were incubated with individual Supersome preparations (final CES concentration, 1.5 mg/ml) in 0.1 M potassium phosphate buffer (pH 7.4) at 37°C. Substrates were added to a final concentration of 1 μM to initiate the reaction. The final incubation volume was 250 μl. Aliquots were removed after incubation for 0, 10, 30, 60, and 120 min. The reactions were stopped by the addition of the quench solution containing the LC-MS internal standard (IS) (labetalol). Following protein precipitation and centrifugation, 150 μl of supernatant was dried down and reconstituted with 250 μl water. All samples were analyzed by an LC-MS, and the analyte/internal standard peak area ratio (PAR) values were used for quantification. Disappearance of RDV or positive-control compounds was monitored over the incubation time period. Three experiments were conducted with two replicates in each experiment, and data are reported as averages from the three experiments.
as §2

CES1c = target: T4, CES1c (Homo sapiens, UniProt P23141); assay: CES1c-catalyzed hydrolysis of RDV and control (substrate disappearance, LC-MS); assay type: in vitro ADME; conditions: 1 μM substrate, CES 1.5 mg/ml, pH 7.4, 37°C
T4 construct: purchased Corning Incorporated (Corning, NY); host or cells: baculovirus-infected insect cells (microsomal fraction, Supersomes)
T4 sequence (P23141 18-566 isoform P23141-3 limits assumed): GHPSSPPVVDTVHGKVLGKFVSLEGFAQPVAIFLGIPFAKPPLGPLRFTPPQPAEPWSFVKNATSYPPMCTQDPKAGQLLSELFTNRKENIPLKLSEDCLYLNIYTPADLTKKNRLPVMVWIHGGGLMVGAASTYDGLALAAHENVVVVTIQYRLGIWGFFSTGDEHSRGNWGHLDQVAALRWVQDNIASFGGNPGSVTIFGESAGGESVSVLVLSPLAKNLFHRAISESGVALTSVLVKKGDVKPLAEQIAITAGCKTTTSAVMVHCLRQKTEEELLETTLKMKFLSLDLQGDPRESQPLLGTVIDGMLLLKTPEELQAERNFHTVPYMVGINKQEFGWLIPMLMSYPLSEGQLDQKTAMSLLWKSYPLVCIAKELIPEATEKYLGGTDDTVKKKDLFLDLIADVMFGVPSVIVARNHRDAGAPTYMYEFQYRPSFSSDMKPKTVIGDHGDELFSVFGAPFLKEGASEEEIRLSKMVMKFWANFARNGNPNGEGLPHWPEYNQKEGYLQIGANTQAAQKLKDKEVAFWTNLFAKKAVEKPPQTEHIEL
Procedure: as §1, §3, §2

CES1b = target: T5, CES1b (Homo sapiens, UniProt P23141); assay: CES1b-catalyzed hydrolysis of RDV and control (substrate disappearance, LC-MS); assay type: in vitro ADME; conditions: 1 μM substrate, CES 1.5 mg/ml, pH 7.4, 37°C
T5 construct: purchased Corning Incorporated (Corning, NY); host or cells: baculovirus-infected insect cells (microsomal fraction, Supersomes)
T5 sequence (P23141 18-567): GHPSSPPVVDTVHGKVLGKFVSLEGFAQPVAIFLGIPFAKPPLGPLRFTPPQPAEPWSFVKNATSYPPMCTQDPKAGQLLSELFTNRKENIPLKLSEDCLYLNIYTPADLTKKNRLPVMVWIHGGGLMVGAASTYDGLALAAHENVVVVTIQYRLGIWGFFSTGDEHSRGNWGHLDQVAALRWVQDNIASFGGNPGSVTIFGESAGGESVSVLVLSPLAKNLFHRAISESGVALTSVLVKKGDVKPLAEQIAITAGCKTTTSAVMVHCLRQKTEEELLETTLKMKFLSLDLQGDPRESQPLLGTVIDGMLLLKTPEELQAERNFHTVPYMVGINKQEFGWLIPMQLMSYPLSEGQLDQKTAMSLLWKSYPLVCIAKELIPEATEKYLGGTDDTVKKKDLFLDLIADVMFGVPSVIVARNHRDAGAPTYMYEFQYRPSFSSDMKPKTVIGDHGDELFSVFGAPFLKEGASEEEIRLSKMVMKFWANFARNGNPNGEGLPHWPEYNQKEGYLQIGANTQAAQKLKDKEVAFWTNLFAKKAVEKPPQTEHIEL
Procedure: as §1, §3, §2

[2] = 1 μM compound, 100 mM sodium acetate pH 4.5

SMILES: CC(Cn1cnc2c(N)ncnc21)OCP(=O)(O)NC(C)C(=O)O (stereo not shown) [TAF MetX]
- Lysosomal hydrolysis at pH 4.5 [1, 2]: 1.2 ± 0.6 × 10^−3 nmol/min
- t1/2, lysosomal hydrolysis at pH 4.5 [1, 2]: 16 ± 7 min

SMILES: C[C@H](N[P@@](=O)(O)OC[C@H]1O[C@@](C#N)(c2ccc3c(N)ncnn23)[C@H](O)[C@@H]1O)C(=O)O [RDV MetX]
- Lysosomal hydrolysis at pH 4.5 [1, 2]: 0 ± 0 nmol/min
- P-N bond cleavage under acidic pH ([1]; acidic pH mimicking intracellular lysosomal conditions): no RDV MetX hydrolysis product was detectable; also recorded: completely resistant to acid hydrolysis
- half-life at 1 μM ([1]; buffer, pH 4.5): > 167 h
- HINT1 hydrolysis (HINT1; 1 μM substrate, 250 nM HINT1, pH 7.2, 37°C): 32 ± 12 nmol/min/mg
- half-life at 1 μM (HINT1; human, recombinant HINT1, 1 μM substrate, 250 nM HINT1, pH 7.2, 37°C, read-out: t1/2, HINT1 hydrolysis (converted)): 5.5 min
- HINT1 metabolism rate relative to GS-6620 MetX (HINT1; times faster than known substrate GS-6620 MetX): 6 times

SMILES: CC(C)OC(=O)[C@H](C)N[P@](=O)(CO[C@H](C)Cn1cnc2c(N)ncnc21)Oc1ccccc1 [TAF (GS-7340), tenofovir alafenamide fumarate]
- Activity for amidate ester cleavage, CatA (CatA; 1 μM substrate, 5 nM CatA, pH 6.5, 37°C): 254 ± 154 nmol/min/mg
- half-life at 1 μM (CatA; human, pH 6.5): 13 min

SMILES: CCN(CC)CCOC(=O)c1ccc(N)cc1 [Procaine]
- Activity for amidate ester cleavage, CES2 (CES2; 1 μM substrate): 4.4 ± 0.8 × 10^−3 nmol/min/mg
- half-life at 1 μM (CES2; human, CES2 Supersomes (protein-enriched subcellular fraction), pH 7.4, 1 μM substrate, read-out: t1/2, CES2 (converted)): 110 min

- Activity for amidate ester cleavage, CES1c (CES1c): 1.5 ± 0.2 × 10^−2 nmol/min/mg
- half-life at 1 μM (CES1c; human, CES1c Supersomes (protein-enriched subcellular fraction), read-out: t1/2, CES1c (converted)): 31 min
- Activity for amidate ester cleavage, CES1b (CES1b): 2.3 ± 0.1 × 10^−2 nmol/min/mg
- half-life at 1 μM (CES1b; human, CES1b Supersomes (protein-enriched subcellular fraction), read-out: t1/2, CES1b (converted)): 20 min
SMILES: CCOC(=O)C1=C[C@@H](OC(CC)CC)[C@H](NC(C)=O)[C@@H](N)C1 [Oseltamivir]
